Reference: paper PMC8835841, “Novel NK1R-Targeted ^68Ga-/^177Lu-Radioconjugates with Potential Application against Glioblastoma Multiforme: Preliminary Exploration of Structure–Activity Relationships” (International Journal of Molecular Sciences, 2022)

Columns and labels:
rNK1R = target: T1, rNK1R (Rattus norvegicus, UniProt P14600); assay: Competitive radioligand binding assay, rat brain homogenates, [3H]-(Sar9,Met(O2)11)-Substance P; details: mean of three independent experiments in duplicate unless stated; for IC50: read-out: IC50 (Mean ± SD) rNK1R
T1 construct: As a source of the receptor proteins, homogenates obtained from rat brains; from tissue; host or cells: rat brain homogenate
Method: (§1) The binding affinity of the tested compounds for human and rat NK1R was determined in competitive radioligand binding assays following the method previously described. As a source of the receptor proteins, homogenates obtained from rat brains (obtained as described in Ref [30]) or homogenates made from hNK1-CHO cells were used. […] The final reaction volumes were 250 μL and 1 mL, for the human and rat NK1R determinations, respectively. […] The binding reaction mixtures were incubated in a shaking water bath at 25 °C for 60 min. The reaction was terminated by rapid filtration through Whatman GF/B filter (Gaithersburg, MD) presoaked in 0.5% polyethyleneimine and washed three times with 2 mL of cold saline. The filters were placed in 24-well plates and immersed in a Betaplate Scint scintillation solution (Perkin Elmer, Waltham, MA, USA). The filter-bound radioactivity was determined by scintillation counter MicroBeta LS, Trilux (PerkinElmer, Waltham, MA, USA).
(§2) The displacement curves were drawn and the mean IC50 values were determined with standard deviations (GraphPad Prism version 8.0, San Diego, CA, USA). At least three independent experiments (carried out in duplicate) were performed.

hNK1R = target: T2, hNK1R (Homo sapiens, UniProt P25103); assay: Competitive radioligand binding assay, hNK1-CHO cell homogenates, [3H]-(Sar9,Met(O2)11)-Substance P; details: for IC50: hNK1-CHO cell homogenates, mean of three independent experiments in duplicate unless stated, read-out: IC50 (Mean ± SD) hNK1R; for fold weaker hNK1R binding than parent compound: relative to L732,138 (1c)
T2 construct: expressed in transfected cells; host or cells: CHO-K1 (hNK1-CHO), gift from Dr. Attila Keresztes and Dr. John M. Streicher
Method: The CHO-K1 cells with a stable overexpression of the human NK1 receptor, denoted further on as hNK1-CHO cells, were obtained as a gift from Dr. Attila Keresztes and Dr. John M. Streicher. The cells were maintained in a humidified atmosphere with 5% CO2 at 37 °C, in Ham’s F12 medium (Corning, Corning, NY, USA) supplemented with 10% Foetal Bovine Serum (CytoGen, Wetzlar, Germany) and 400 μg/mL G418 (Corning, Corning, NY, USA).
When the cells reached approximately 90% confluence, they were harvested by treatment with 0.05% trypsin/EDTA (Corning, Corning, NY, USA). After centrifugation at 1500 rpm for 5 min, the cells were homogenized in a glass tissue homogenizer in ice-cold 50 mM Tris-HCl buffer (pH 7.4) with 5 mM MnCl2. The preparation was collected by centrifugation at 13,000 rpm for 25 min at 4 °C, and then the pellet was suspended in 50 mM Tris-HCl buffer. The homogenates were stored at −80 °C for later use. The BCA assay (Thermo Scientific, Waltham, MA, USA) was used to determine the protein concentration in the homogenates.
as §1, §2

physchem = type: physicochemical
Method: A lipophilicity study was also performed right after the SPE method purification and ethanol evaporation. For each DOTA radioconjugate, the lipophilicity value was estimated as the logarithm of the distribution coefficient (D) based on the ratio of the radioactivity of the organic phase to the radioactivity of the aqueous phase in the n-octanol/PBS (pH 7.40) system. Simultaneously, the stability of the studied radioconjugate during the experiment was verified through the HPLC analysis of the aqueous phase.
A solution of isolated radioconjugate (approximately 0.5 MBq for ^177Lu-radioconjugates or 5 MBq for ^68Ga-radioconjugates) in 500 µL of 0.1 M PBS buffer (pH 7.40) and 500 µL of n-octanol was vigorously stirred and centrifuged (13,500 rpm for 5 min) to separate the immiscible phases. Then, the radioactivity of samples from both phases were measured using a well-type NaI(Tl) detector. The distribution coefficient, D, was calculated dividing the radioactivity of the radioconjugate in the organic phase to that in the aqueous phase. Each experiment was performed in triplicate and averaged. In parallel, the aqueous phases were analysed by HPLC to confirm the stability of studied radioconjugate during the experiment period. The lipophilicity value of each radioconjugates was expressed as the logarithm of its D value.

[1] = pH 7.4, logD7.4 (Mean ± SD) 68Ga-

T2 sequence (P25103 whole entry): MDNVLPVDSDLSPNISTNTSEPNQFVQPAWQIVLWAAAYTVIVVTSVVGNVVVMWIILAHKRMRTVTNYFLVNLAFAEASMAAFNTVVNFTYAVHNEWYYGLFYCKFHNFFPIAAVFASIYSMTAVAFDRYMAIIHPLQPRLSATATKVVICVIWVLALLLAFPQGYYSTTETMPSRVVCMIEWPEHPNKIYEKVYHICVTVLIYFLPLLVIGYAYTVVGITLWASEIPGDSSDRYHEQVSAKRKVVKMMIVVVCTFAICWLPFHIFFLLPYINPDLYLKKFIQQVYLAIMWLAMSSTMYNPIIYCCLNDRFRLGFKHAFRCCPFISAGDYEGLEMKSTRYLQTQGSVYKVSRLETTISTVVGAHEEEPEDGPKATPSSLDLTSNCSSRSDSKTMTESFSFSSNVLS
T1 sequence (P14600 whole entry): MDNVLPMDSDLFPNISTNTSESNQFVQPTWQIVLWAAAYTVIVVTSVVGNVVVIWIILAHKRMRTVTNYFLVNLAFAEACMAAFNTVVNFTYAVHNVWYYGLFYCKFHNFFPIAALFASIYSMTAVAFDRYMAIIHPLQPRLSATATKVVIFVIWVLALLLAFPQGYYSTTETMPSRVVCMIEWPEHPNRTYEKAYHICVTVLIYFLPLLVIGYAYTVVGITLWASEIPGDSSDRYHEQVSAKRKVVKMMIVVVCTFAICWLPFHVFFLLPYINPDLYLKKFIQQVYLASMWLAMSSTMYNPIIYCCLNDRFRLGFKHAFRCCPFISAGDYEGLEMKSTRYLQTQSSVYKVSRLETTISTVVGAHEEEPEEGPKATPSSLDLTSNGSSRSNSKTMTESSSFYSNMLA

| Compound | IC50 (rNK1R) | IC50 (hNK1R) | further results |
| --- | --- | --- | --- |
| CC(C)(C)OC(=O)N[C@@H](Cc1c[nH]c2ccccc12)C(=O)OCc1cc(C(F)(F)F)cc(C(F)(F)F)c1 [Compound 1a, 3,5-bis(trifluoromethyl)benzyl (tert-butoxycarbonyl)-L-tryptophanate] | 2930 ± 1520 nM | 180 ± 112 nM | fold weaker hNK1R binding than parent compound (hNK1R): 7 × |
| N[C@@H](Cc1c[nH]c2ccccc12)C(=O)OCc1cc(C(F)(F)F)cc(C(F)(F)F)c1.O=C(O)C(F)(F)F [Compound 1b, (S)-1-((3,5-bis(trifluoromethyl)benzyl)oxy)-3-(1H-indol-3-yl)-1-oxopropan-2-aminium 2,2,2-trifluoroacetate] | > 10000 nM | 359 ± 132 nM | fold weaker hNK1R binding than parent compound (hNK1R): 14 × |
| C[C@@H](NC(=O)OC(C)(C)C)C(=O)N[C@@H](Cc1c[nH]c2ccccc12)C(=O)OCc1cc(C(F)(F)F)cc(C(F)(F)F)c1 [Compound 2a, 3,5-bis(trifluoromethyl)benzyl (tert-butoxycarbonyl)-D-alanyl-L-tryptophanate] | 1530 ± 279 nM | 135 ± 108 nM |  |
| C[C@@H](N)C(=O)N[C@@H](Cc1c[nH]c2ccccc12)C(=O)OCc1cc(C(F)(F)F)cc(C(F)(F)F)c1 [Compound 2b, (R)-1-(((S)-1-((3,5-bis(trifluoromethyl)benzyl)oxy)-3-(1H-indol-3-yl)-1-oxopropan-2-yl)amino)-1-oxopropan-2-aminium 2,2,2-trifluoroacetate] | 4680 ± 1320 nM | 25.4 ± 12.5 nM |  |
| CC(=O)N[C@H](C)C(=O)N[C@@H](Cc1c[nH]c2ccccc12)C(=O)OCc1cc(C(F)(F)F)cc(C(F)(F)F)c1 [Compound 2c, 3,5-bis(trifluoromethyl)benzyl acetyl-D-alanyl-L-tryptophanate] | 2280 ± 703 nM | 25.3 ± 0.4 nM |  |
| C[C@@H](NC(=O)OC(C)(C)C)C(=O)N[C@H](C)C(=O)N[C@@H](Cc1c[nH]c2ccccc12)C(=O)OCc1cc(C(F)(F)F)cc(C(F)(F)F)c1 [Compound 3a, 3,5-bis(trifluoromethyl)benzyl (tert-butoxycarbonyl)-D-alanyl-D-alanyl-L-tryptophanate] | 745 ± 311 nM | 13.9 ± 11.2 nM | IC50 (Mean ± SD) rNK1R (rNK1R): submicromolar |
| C[C@@H](N)C(=O)N[C@H](C)C(=O)N[C@@H](Cc1c[nH]c2ccccc12)C(=O)OCc1cc(C(F)(F)F)cc(C(F)(F)F)c1 [Compound 3b, (R)-1-(((R)-1-(((S)-1-((3,5-bis(trifluoromethyl)benzyl)oxy)-3-(1H-indol-3-yl)-1-oxopropan-2-yl)amino)-1-oxopropan-2-yl)amino)-1-oxopropan-2-aminium 2,2,2-trifluoroacetate] | 4010 ± 1370 nM | 80.8 ± 59.7 nM |  |
| CC(=O)N[C@H](C)C(=O)N[C@H](C)C(=O)N[C@@H](Cc1c[nH]c2ccccc12)C(=O)OCc1cc(C(F)(F)F)cc(C(F)(F)F)c1 [Compound 3c, 3,5-bis(trifluoromethyl)benzyl acetyl-D-alanyl-D-alanyl-L-tryptophanate] | 1140 ± 289 nM | 13.5 ± 12.1 nM |  |
| CC(C)(C)OC(=O)NCCCCCC(=O)N[C@@H](Cc1c[nH]c2ccccc12)C(=O)OCc1cc(C(F)(F)F)cc(C(F)(F)F)c1 [Compound 4a, 3,5-bis(trifluoromethyl)benzyl (6-((tert-butoxycarbonyl)amino)hexanoyl)-L-tryptophanate] | 1660 ± 1050 nM | 60.7 ± 31.9 nM |  |
| NCCCCCC(=O)N[C@@H](Cc1c[nH]c2ccccc12)C(=O)OCc1cc(C(F)(F)F)cc(C(F)(F)F)c1 [Compound 4b, (S)-6-((1-((3,5-bis(trifluoromethyl)benzyl)oxy)-3-(1H-indol-3-yl)-1-oxopropan-2-yl)amino)-6-oxohexan-1-aminium 2,2,2-trifluoroacetate] | 1400 ± 319 nM | 35.4 ± 23.6 nM |  |
| CC(=O)NCCCCCC(=O)N[C@@H](Cc1c[nH]c2ccccc12)C(=O)OCc1cc(C(F)(F)F)cc(C(F)(F)F)c1 [Compound 4c, 3,5-bis(trifluoromethyl)benzyl (6-acetamidohexanoyl)-L-tryptophanate] | 1950 ± 641 nM | 83.1 ± 69.3 nM |  |
| O=C(O)CN1CCN(CC(=O)O)CCN(CC(=O)NCCCCCC(=O)N[C@@H](Cc2c[nH]c3ccccc23)C(=O)OCc2cc(C(F)(F)F)cc(C(F)(F)F)c2)CCN(CC(=O)O)CC1 [Compound 4d] |  | 8.7 ± 3.2 nM |  |
| CC(C)(C)OC(=O)NCCCCCC(=O)NCCCCCC(=O)N[C@@H](Cc1c[nH]c2ccccc12)C(=O)OCc1cc(C(F)(F)F)cc(C(F)(F)F)c1 [Compound 5a, 3,5-bis(trifluoromethyl)benzyl (6-(6-((tert-butoxycarbonyl)amino)hexanamido)hexanoyl)-L-tryptophanate] | 762 ± 295 nM | 4.5 ± 2.8 nM | IC50 (Mean ± SD) rNK1R (rNK1R): submicromolar |
| NCCCCCC(=O)NCCCCCC(=O)N[C@@H](Cc1c[nH]c2ccccc12)C(=O)OCc1cc(C(F)(F)F)cc(C(F)(F)F)c1.O=C(O)C(F)(F)F [Compound 5b, (S)-6-((6-((1-((3,5-bis(trifluoromethyl)benzyl)oxy)-3-(1H-indol-3-yl)-1-oxopropan-2-yl)amino)-6-oxohexyl)amino)-6-oxohexan-1-aminium 2,2,2-trifluoroacetate] | 572 ± 41 nM | 20.4 ± 10.2 nM | IC50 (Mean ± SD) rNK1R (rNK1R): submicromolar |
| CC(=O)NCCCCCC(=O)NCCCCCC(=O)N[C@@H](Cc1c[nH]c2ccccc12)C(=O)OCc1cc(C(F)(F)F)cc(C(F)(F)F)c1 [Compound 5c, 3,5-bis(trifluoromethyl)benzyl (6-(6-acetamidohexanamido)hexanoyl)-L-tryptophanate] | 655 ± 120 nM | 14.3 ± 5.2 nM | IC50 (Mean ± SD) rNK1R (rNK1R): submicromolar |
| O=C(O)CN1CCN(CC(=O)O)CCN(CC(=O)N[C@@H](Cc2c[nH]c3ccccc23)C(=O)OCc2cc(C(F)(F)F)cc(C(F)(F)F)c2)CCN(CC(=O)O)CC1 [Ga-1d] | 112 ± 3 nM | 5.1 ± 2 nM |  |
| O=C(O)CN1CCN(CC(=O)O)CCN(CC(=O)N[C@@H](Cc2c[nH]c3ccccc23)C(=O)OCc2cc(C(F)(F)F)cc(C(F)(F)F)c2)CCN(CC(=O)O)CC1 [[^68Ga]Ga-1d, metal not drawn] |  |  | logD (physchem; [1]): -0.085 ± 0.015 |
| C[C@@H](NC(=O)CN1CCN(CC(=O)O)CCN(CC(=O)O)CCN(CC(=O)O)CC1)C(=O)N[C@@H](Cc1c[nH]c2ccccc12)C(=O)OCc1cc(C(F)(F)F)cc(C(F)(F)F)c1 [[^68Ga]Ga-2d, metal not drawn] |  |  | logD (physchem; [1]): -0.06 ± 0.02 |
| C[C@@H](NC(=O)CN1CCN(CC(=O)O)CCN(CC(=O)O)CCN(CC(=O)O)CC1)C(=O)N[C@H](C)C(=O)N[C@@H](Cc1c[nH]c2ccccc12)C(=O)OCc1cc(C(F)(F)F)cc(C(F)(F)F)c1 [[^68Ga]Ga-3d, metal not drawn] |  |  | logD (physchem; [1]): -0.259 ± 0.017 |
| O=C(O)CN1CCN(CC(=O)O)CCN(CC(=O)NCCCCCC(=O)N[C@@H](Cc2c[nH]c3ccccc23)C(=O)OCc2cc(C(F)(F)F)cc(C(F)(F)F)c2)CCN(CC(=O)O)CC1 [[^68Ga]Ga-4d, metal not drawn] |  |  | logD (physchem; [1]): 0.071 ± 0.023 |
| O=C(O)CN1CCN(CC(=O)O)CCN(CC(=O)NCCCCCC(=O)NCCCCCC(=O)N[C@@H](Cc2c[nH]c3ccccc23)C(=O)OCc2cc(C(F)(F)F)cc(C(F)(F)F)c2)CCN(CC(=O)O)CC1 [[^68Ga]Ga-5d, metal not drawn] |  |  | logD (physchem; [1]): -0.466 ± 0.016 |
| C[C@@H](NC(=O)CN1CCN(CC(=O)O)CCN(CC(=O)O)CCN(CC(=O)O)CC1)C(=O)N[C@@H](Cc1c[nH]c2ccccc12)C(=O)OCc1cc(C(F)(F)F)cc(C(F)(F)F)c1 [[^177Lu]Lu-2d, metal not drawn] |  |  | logD (physchem; pH 7.4, logD7.4 (Mean ± SD) 177Lu-): 0.704 ± 0.005 |
